{"source": "patent US20250340563A1", "about": "“FUSED PYRIDAZINE DERIVATIVES AS NLRP3 INHIBITORS” (Takeda Pharmaceutical Company Limited, priority 2022, published 2025)", "key": {"NLRP3 inflammasome": {"biological_target": "NLRP3 inflammasome (Homo sapiens, UniProt Q96P20)", "sequence (Q96P20 whole entry)": "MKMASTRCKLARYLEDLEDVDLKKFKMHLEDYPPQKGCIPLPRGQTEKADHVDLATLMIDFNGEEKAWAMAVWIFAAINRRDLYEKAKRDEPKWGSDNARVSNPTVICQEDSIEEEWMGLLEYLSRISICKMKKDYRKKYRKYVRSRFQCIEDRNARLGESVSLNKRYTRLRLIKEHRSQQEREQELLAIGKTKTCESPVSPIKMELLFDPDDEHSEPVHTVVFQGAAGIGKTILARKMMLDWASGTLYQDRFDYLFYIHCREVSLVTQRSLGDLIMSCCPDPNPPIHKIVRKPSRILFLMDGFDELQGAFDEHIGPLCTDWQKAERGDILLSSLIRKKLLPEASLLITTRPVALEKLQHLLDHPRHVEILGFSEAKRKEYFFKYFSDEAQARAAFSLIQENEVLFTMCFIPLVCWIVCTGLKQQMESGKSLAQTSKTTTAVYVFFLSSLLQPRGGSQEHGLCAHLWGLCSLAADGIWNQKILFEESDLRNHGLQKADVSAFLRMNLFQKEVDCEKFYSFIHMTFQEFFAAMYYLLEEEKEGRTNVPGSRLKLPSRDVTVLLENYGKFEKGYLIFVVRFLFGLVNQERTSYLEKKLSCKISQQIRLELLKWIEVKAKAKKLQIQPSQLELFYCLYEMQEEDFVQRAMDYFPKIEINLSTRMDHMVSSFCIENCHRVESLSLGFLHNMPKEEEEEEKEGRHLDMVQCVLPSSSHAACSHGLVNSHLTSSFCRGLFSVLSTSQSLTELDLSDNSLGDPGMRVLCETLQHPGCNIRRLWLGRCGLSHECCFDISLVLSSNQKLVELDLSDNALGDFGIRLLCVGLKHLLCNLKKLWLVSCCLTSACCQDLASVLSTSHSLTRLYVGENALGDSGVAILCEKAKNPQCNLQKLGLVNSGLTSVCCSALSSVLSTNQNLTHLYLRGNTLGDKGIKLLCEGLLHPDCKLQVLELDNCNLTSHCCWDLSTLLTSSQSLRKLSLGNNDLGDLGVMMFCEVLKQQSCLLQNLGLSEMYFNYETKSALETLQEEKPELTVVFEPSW", "test": "IL-1β assay in IFN-γ-differentiated, LPS-primed, ATP-activated THP-1 cells (ELISA)", "assay_type": "cell-based", "conditions": "50 ng/mL LPS priming, 2.5 mM ATP activation, 2 hours", "in_short": "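THP-1 cells differentiated with 25 ng/mL IFN-γ for 24 h, then primed with 50 ng/mL LPS for 24 h in serum-free medium. After 30 min compound preincubation (1:3.16 dilution series), inflammasome activated with 2.5 mM ATP for 2 h at 37 °C. Supernatant IL-1β measured by ELISA; IC50 from logistic fit of % inhibition.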"}, "NF-κB pathway": {"test_system": "NF-κB pathway", "test": "TNF-α assay in IFN-γ-differentiated, LPS-stimulated THP-1 cells (ELISA)", "assay_type": "cell-based", "conditions": "Homo sapiens, 50 ng/mL LPS, 3 hours", "in_short": "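THP-1 cells differentiated with 25 ng/mL IFN-γ for 24 h, then preincubated 30 min at 37 °C with compound (1:3.16 serial dilutions) in serum-free medium. Stimulated with 50 ng/mL LPS for 3 h; supernatant assayed by human TNF-α ELISA. IC50 from four-parameter logistic fit of % inhibition.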"}, "MDR1 (P-gp)": {"biological_target": "T1, MDR1 (P-gp) (Homo sapiens, UniProt P08183)", "T1 construct": "expressed in transfected cells; host or cells: Madin-Darby Canine Kidney (MDCK) cells", "T1 sequence (P08183 whole entry, species assumed)": "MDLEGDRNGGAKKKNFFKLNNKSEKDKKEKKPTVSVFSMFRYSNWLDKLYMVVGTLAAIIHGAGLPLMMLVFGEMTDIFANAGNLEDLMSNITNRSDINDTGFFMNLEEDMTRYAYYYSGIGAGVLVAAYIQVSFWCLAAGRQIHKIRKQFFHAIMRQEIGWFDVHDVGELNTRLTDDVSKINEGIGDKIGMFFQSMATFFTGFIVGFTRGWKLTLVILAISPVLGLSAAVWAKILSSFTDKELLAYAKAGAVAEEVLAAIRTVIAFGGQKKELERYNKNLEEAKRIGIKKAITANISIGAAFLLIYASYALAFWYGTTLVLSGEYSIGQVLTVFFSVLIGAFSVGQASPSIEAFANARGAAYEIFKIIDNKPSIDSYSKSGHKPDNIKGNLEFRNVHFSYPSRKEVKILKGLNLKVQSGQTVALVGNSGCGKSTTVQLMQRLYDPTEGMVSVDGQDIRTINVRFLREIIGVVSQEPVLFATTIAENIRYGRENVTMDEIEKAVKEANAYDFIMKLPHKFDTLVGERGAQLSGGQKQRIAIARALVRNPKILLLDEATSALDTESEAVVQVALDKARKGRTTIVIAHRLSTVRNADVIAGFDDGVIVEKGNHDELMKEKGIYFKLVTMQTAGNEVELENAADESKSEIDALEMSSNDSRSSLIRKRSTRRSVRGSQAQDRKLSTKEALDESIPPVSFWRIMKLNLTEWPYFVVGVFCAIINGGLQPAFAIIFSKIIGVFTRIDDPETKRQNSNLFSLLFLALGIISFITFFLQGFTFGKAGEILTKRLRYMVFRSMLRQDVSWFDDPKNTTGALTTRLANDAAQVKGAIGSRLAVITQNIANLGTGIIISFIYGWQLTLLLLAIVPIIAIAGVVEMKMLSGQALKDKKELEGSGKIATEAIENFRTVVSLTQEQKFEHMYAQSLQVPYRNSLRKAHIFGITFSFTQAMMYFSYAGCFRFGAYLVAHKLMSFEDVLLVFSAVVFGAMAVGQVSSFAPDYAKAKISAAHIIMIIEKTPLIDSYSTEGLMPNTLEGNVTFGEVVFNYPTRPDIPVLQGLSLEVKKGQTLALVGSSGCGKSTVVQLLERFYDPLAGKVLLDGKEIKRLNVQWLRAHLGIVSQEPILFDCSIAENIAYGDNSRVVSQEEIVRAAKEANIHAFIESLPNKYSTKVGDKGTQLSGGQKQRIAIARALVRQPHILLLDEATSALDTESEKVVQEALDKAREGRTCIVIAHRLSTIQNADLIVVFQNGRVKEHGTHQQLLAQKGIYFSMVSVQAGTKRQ", "test": "MDCK-MDR1 assay (apparent permeability and efflux ratio)", "assay_type": "in vitro ADME", "conditions": "dog; for efflux ratio at 60 min, 1 µM: pH 7.4, MDCK-MDR1, P-gp mediated efflux ratio, read-out: MDR1 ER; for Papp A→B at 60 min, 1 µM: MDCK-MDR1 monolayer, apical to basolateral, pH 7.4, 60 minutes", "protocol": "Madine-Darby Canine Kidney (MDCK) cells transfected with Multidrug resistance protein 1 (MDR1) are maintained in accordance with the provider's instructions in Dulbecco's Modified Eagle media (DMEM, Fisher Scientific Cat #10569044). DMEM is supplemented with 10% heat inactivated fetal bovine serum (Gibco Cat #16000-044), Penicillin-Streptomycin (100 units/mL) (Gibco Cat #15140122) and an inducer of P-gp, colchicine (200 nM) (Sigma Cat #C9754). The cells are seeded onto the apical side of HTS-Transwell-96 Plates (0.4 μm pore size, Corning Cat #3381) at a density of 6.25×10^3 cells per well with 75 μL and 250 μL of DMEM media in apical and basolateral wells, respectively, and are incubated at 37° C./5% CO2. Fresh DMEM media is exchanged in the apical and basolateral compartments after 72 hours and cells are allowed to grow into a monolayer for 144 hours before beginning the experimental incubation. Incubations are performed in Hanks' Balanced Salt Solution (HBSS, Fisher Scientific Cat #14025134) at pH 7.4 with 1% Bovine Serum Albumin (Sigma, Cat #A9418) and 10 mM HEPES (Fisher Scientific, Cat #15630080). DMEM media is removed and cells are rinsed with warm (37° C.) HBSS. HBSS with test compound at 1p M substrate concentration (0.1% v/v DMSO) is added to either the apical or basolateral compartment (75 μL or 250 μL, respectively) and blank HBSS buffer is added to the compartment which lacks test compound in singlicate. The cells are incubated for 60 minutes at 37° C./5% CO2. At the end of the incubation period, 50 μL of sample is removed from each receiver compartment and diluted into 150 μL of acetonitrile (Fisher Scientific, Cat #A996SK4)+0.1% formic acid (Sigma, Cat #F0507). The samples are centrifuged at 2000 rcf for 10 minutes at 4° C., after which 100 μL of supernatant is transferred to a new microplate and diluted with 100 μL of HPLC grade water (Fisher Scientific, Cat #W64). Samples are analyzed using a triple quadrupole mass spectrometer API-5500QTrap (ABSciex, Serial No. AU23291006) along with associated autosampler and high performance liquid chromatography pump instrumentation optimized for the detection of test articles through a Kinetix 2.1×50 mm C18 100 Å column (Phenomenex, Cat #00B-4605-AN).\nApparent permeability (Papp) values and efflux ratio are calculated using the following equations: […]"}}, "data": [{"smiles": "CN1CCC[C@@H](Nc2nnc(-c3ccc(Cl)cc3O)c3c2COCC3)C1", "note": "[Example 225, (R)-5-chloro-2-(4-((1-methylpiperidin-3-yl)amino)-7,8-dihydro-5H-pyrano[3,4-d]pyridazin-1-yl)phenol]", "values": [{"measurement": "IC50", "setting": "NLRP3 inflammasome", "result": 2, "unit": "nM"}, {"measurement": "IC50", "setting": "NF-κB pathway", "result": "> 30000", "unit": "nM"}, {"measurement": "efflux ratio at 60 min, 1 µM", "setting": "MDR1 (P-gp)", "result": 22}, {"measurement": "Papp A→B at 60 min, 1 µM", "setting": "MDR1 (P-gp)", "result": 1.5, "unit": "×10⁻⁶ cm/s"}]}, {"smiles": "CN1CCC[C@@H](Nc2nnc(-c3ccccc3O)c3c2COCC3)C1", "note": "[Example 226, (R)-2-(4-((1-methylpiperidin-3-yl)amino)-7,8-dihydro-5H-pyrano[3,4-d]pyridazin-1-yl)phenol]", "values": [{"measurement": "IC50", "setting": "NLRP3 inflammasome", "result": 9, "unit": "nM"}, {"measurement": "IC50", "setting": "NF-κB pathway", "result": "> 30000", "unit": "nM"}, {"measurement": "efflux ratio at 60 min, 1 µM", "setting": "MDR1 (P-gp)", "result": 21}, {"measurement": "Papp A→B at 60 min, 1 µM", "setting": "MDR1 (P-gp)", "result": 1.3, "unit": "×10⁻⁶ cm/s"}]}, {"smiles": "Cc1ccc(-c2nnc(N[C@@H]3CCCC[C@H]3O)c3c2CCOC3)c(O)c1", "note": "[Example 229, 2-(4-(((1R,2R)-2-hydroxycyclohexyl)amino)-7,8-dihydro-5H-pyrano[3,4-d]pyridazin-1-yl)-5-methylphenol]", "values": [{"measurement": "IC50", "setting": "NLRP3 inflammasome", "result": 36, "unit": "nM"}, {"measurement": "IC50", "setting": "NF-κB pathway", "result": "> 10000", "unit": "nM"}, {"measurement": "efflux ratio at 60 min, 1 µM", "setting": "MDR1 (P-gp)", "result": 6}, {"measurement": "Papp A→B at 60 min, 1 µM", "setting": "MDR1 (P-gp)", "result": 1, "unit": "×10⁻⁶ cm/s"}]}, {"smiles": "Cc1ccc(-c2nnc(N[C@@H]3CCCC[C@H]3O)c3c2COCC3)c(O)c1", "note": "[Example 230, 2-(1-(((1R,2R)-2-hydroxycyclohexyl)amino)-7,8-dihydro-5H-pyrano[3,4-d]pyridazin-4-yl)-5-methylphenol]", "values": [{"measurement": "IC50", "setting": "NLRP3 inflammasome", "result": 121, "unit": "nM"}, {"measurement": "IC50", "setting": "NF-κB pathway", "result": "> 10000", "unit": "nM"}, {"measurement": "efflux ratio at 60 min, 1 µM", "setting": "MDR1 (P-gp)", "result": 7}, {"measurement": "Papp A→B at 60 min, 1 µM", "setting": "MDR1 (P-gp)", "result": 1.3, "unit": "×10⁻⁶ cm/s"}]}, {"smiles": "COCCN1CCC[C@@H](Nc2nnc(-c3ccc(C)cc3O)c3c2COCC3)C1", "note": "[Example 233, (R)-2-(4-((1-(2-methoxyethyl)piperidin-3-yl)amino)-7,8-dihydro-5H-pyrano[3,4-d]pyridazin-1-yl)-5-methylphenol]", "values": [{"measurement": "IC50", "setting": "NLRP3 inflammasome", "result": 155, "unit": "nM"}, {"measurement": "IC50", "setting": "NF-κB pathway", "result": "> 30000", "unit": "nM"}, {"measurement": "efflux ratio at 60 min, 1 µM", "setting": "MDR1 (P-gp)", "result": 25}, {"measurement": "Papp A→B at 60 min, 1 µM", "setting": "MDR1 (P-gp)", "result": 2, "unit": "×10⁻⁶ cm/s"}]}, {"smiles": "CN1C[C@H](F)C[C@@H](Nc2nnc(-c3ccc(C(F)(F)F)cc3O)c3c2COCC3)C1", "note": "[Example 234, 2-(4-(((3R,5R)-5-fluoro-1-methylpiperidin-3-yl)amino)-7,8-dihydro-5H-pyrano[3,4-d]pyridazin-1-yl)-5-(trifluoromethyl)phenol]", "values": [{"measurement": "IC50", "setting": "NLRP3 inflammasome", "result": 6, "unit": "nM"}, {"measurement": "IC50", "setting": "NF-κB pathway", "result": "> 30000", "unit": "nM"}, {"measurement": "efflux ratio at 60 min, 1 µM", "setting": "MDR1 (P-gp)", "result": 12}, {"measurement": "Papp A→B at 60 min, 1 µM", "setting": "MDR1 (P-gp)", "result": 1.5, "unit": "×10⁻⁶ cm/s"}]}, {"smiles": "CN1C[C@H](F)C[C@@H](Nc2nnc(-c3ccc(OC(F)(F)F)cc3O)c3c2COCC3)C1", "note": "[Example 236, 2-(4-(((3R,5R)-5-fluoro-1-methylpiperidin-3-yl)amino)-7,8-dihydro-5H-pyrano[3,4-d]pyridazin-1-yl)-5-(trifluoromethoxy)phenol]", "values": [{"measurement": "IC50", "setting": "NLRP3 inflammasome", "result": 7, "unit": "nM"}, {"measurement": "IC50", "setting": "NF-κB pathway", "result": "> 30000", "unit": "nM"}, {"measurement": "efflux ratio at 60 min, 1 µM", "setting": "MDR1 (P-gp)", "result": 10}, {"measurement": "Papp A→B at 60 min, 1 µM", "setting": "MDR1 (P-gp)", "result": 2.2, "unit": "×10⁻⁶ cm/s"}]}, {"smiles": "COc1ccc(-c2nnc(N[C@@H]3C[C@@H](F)CN(C)C3)c3c2CCOC3)c(O)c1", "note": "[Example 237, 2-(4-(((3R,5R)-5-fluoro-1-methylpiperidin-3-yl)amino)-7,8-dihydro-5H-pyrano[3,4-d]pyridazin-1-yl)-5-methoxyphenol]", "values": [{"measurement": "IC50", "setting": "NLRP3 inflammasome", "result": 11, "unit": "nM"}, {"measurement": "IC50", "setting": "NF-κB pathway", "result": "> 30000", "unit": "nM"}, {"measurement": "efflux ratio at 60 min, 1 µM", "setting": "MDR1 (P-gp)", "result": 10}, {"measurement": "Papp A→B at 60 min, 1 µM", "setting": "MDR1 (P-gp)", "result": 1.6, "unit": "×10⁻⁶ cm/s"}]}, {"smiles": "CN1C[C@H](F)C[C@@H](Nc2nnc(-c3ccc(C4CC4)cc3O)c3c2COCC3)C1", "note": "[Example 238, 5-cyclopropyl-2-(4-(((3R,5R)-5-fluoro-1-methylpiperidin-3-yl)amino)-7,8-dihydro-5H-pyrano[3,4-d]pyridazin-1-yl)phenol]", "values": [{"measurement": "IC50", "setting": "NLRP3 inflammasome", "result": 5, "unit": "nM"}, {"measurement": "IC50", "setting": "NF-κB pathway", "result": "> 30000", "unit": "nM"}, {"measurement": "efflux ratio at 60 min, 1 µM", "setting": "MDR1 (P-gp)", "result": 41}, {"measurement": "Papp A→B at 60 min, 1 µM", "setting": "MDR1 (P-gp)", "result": 0.6, "unit": "×10⁻⁶ cm/s"}]}, {"smiles": "CN1C[C@H](F)C[C@@H](Nc2nnc(-c3ccc(C(F)F)cc3O)c3c2COCC3)C1", "note": "[Example 239, 5-(difluoromethyl)-2-(4-(((3R,5R)-5-fluoro-1-methylpiperidin-3-yl)amino)-7,8-dihydro-5H-pyrano[3,4-d]pyridazin-1-yl)phenol]", "values": [{"measurement": "IC50", "setting": "NLRP3 inflammasome", "result": 11, "unit": "nM"}, {"measurement": "IC50", "setting": "NF-κB pathway", "result": "> 30000", "unit": "nM"}, {"measurement": "efflux ratio at 60 min, 1 µM", "setting": "MDR1 (P-gp)", "result": 39}, {"measurement": "Papp A→B at 60 min, 1 µM", "setting": "MDR1 (P-gp)", "result": 1.2, "unit": "×10⁻⁶ cm/s"}]}]}
